Measurements: paper PMC12052742, “Engineering a newly identified alcohol dehydrogenase from Sphingobium Sp. for efficient utilization of nicotinamide cofactors biomimetics” (Bioresources and Bioprocessing, 2025)

Columns and labels:
SpADH2 variant A290I = test: Substrate kinetic assay, A290I; type: biochemical, Sphingobium sp. SYK-6
Experimental: (§1) Specific activity of SpADH2 in substrate spectrum study was measured spectrophotometrically. PBS (pH 7.5) buffer was pre-heated at 30°C for 15 min. For NAD^+, 0.05 µg SpADH2 was added to the PBS buffer (100 µL), and a final concentration of 2 mM NAD^+ was added. For tsNCBs cofactor p-BANA^+, 5 µg SpADH2 and a final concentration of 7.5 mM p-BANA^+ was added. The mixture was carried out in a 96-well microplate, and a final concentration of 5 mM substrate was added to start the reaction. The microplate was incubated in 30°C for 1 h. Florescent probes (2-[2-(1,4-dihydro-1-methyl-3-quinolinyl)ethenyl]-1,3,3-trimethyl-3H-indolium) in a final concentration of 0.2 mM (100 µL) was added (Scheme S1), and the microplate was placed in a microplate reader immediately for measurement under 537 nm (Fomin et al. [2016]).
(§2) Kinetic analysis of SpADH2 and its variants were carried out following Michaelis-Menten equation or Michaelis-Menten excess substrate inhibition equation. For of the substrate kinetic assays, concentrations of cofactors were fixed at 5 mM for NAD^+ and 7.5 mM for p-BANA^+. For cofactor kinetic assays, the concentration of 1a was fixed at 5 mM.
(§3) Specific activity was determined spectrophotometrically as above except that gradient 1a (0−20 mM) or cofactor (0−35 mM) concentrations were applied.
(§4) Cofactor specificity ratio (CSR) represents the ratio of catalytic efficiency of p-BANA^+ to NAD^+ for each enzyme, and relative specificity (RS) stands for the CSR ratio of variants to WT (King et al. [2020]).

[1] = tested on: SpADH2 variant H43L/A290I; test: Activity of variant in oxidation of syringyl alcohol with p-BANA^+ (Fig. 5), H43L/A290I; type: biochemical, Sphingobium sp. SYK-6; details: cofactor p-BANA^+
Experimental: In the first round of screening, saturation mutagenesis was constructed for six positions (W114, T177, G172, G316, A47, and R227). […] Therefore, in the second round of mutagenesis, six additional sites within the 5 Å range of the cofactor ribose (H43, V202, T265, V288, G289, and A290) were selected for saturation mutagenesis screening (Fig. 6c and Fig. S6). Three beneficial mutations were identified. […] Subsequently, combinatorial mutagenesis was performed, resulting in 11 double variants and 3 triple variants.
Fig. 5 Relative activity of SpADH2 and its variants in oxidation of syringyl alcohol when utilizing p-BANA^+ as cofactor
In preliminary screening by spectrophotometric analysis, PBS (pH 7.5) buffer (50 µL) in a 96-well plate was pre-warmed at 30°C for 15 min, and a final concentration of 5 mM p-BANA^+ and 1 mM substrate syringyl alcohol were added, and 50 µL of crude enzyme were add to each well to start the reaction, with WT as control. The reaction mixture was incubated at 30°C for 1 h, followed by addition of fluorescent probes in a final concentration of 0.2 mM, and was subjected to determination under 537 nm as described above.

SpADH2 WT = SpADH2 WT (Sphingobium sp. SYK-6, UniProt G2IIZ8); test: Substrate kinetic assay, WT; type: biochemical
Experimental: as §1, §2, §3, §4

[2] = tested on: SpADH2 variants (H43L, A290I, H43L/A290I); test: Cofactor spectrum (HPLC specific activity), all variants together; type: biochemical, Sphingobium sp. SYK-6; details: 1a 5 mM, cofactor 7.5 mM, pH 7.5, 30℃
Experimental: Fig. 8 Cofactor spectrums of SpADH2 and its variants. The darkness of color for each cofactor stands for the activity. For each cofactor cube, top left: WT, top right: H43L, bottom left: A290I, bottom right: H43L/A290I. (a) Natural cofactors and NMN^+ are shown in purple. (b) tsNCBs are shown in cyan. The evaluation of cofactor spectrum was carried out under following conditions: 50 mM PBS buffer (pH 7.5) and 30℃, with 1a (5 mM) as substrate and different cofactors (7.5 mM) as cofactor. For NAD(P)^+ and NMN^+, 0.05 µg enzyme was added, and for tsNCBs, 5 µg enzyme was added. The results were analyzed by HPLC after 1 h reaction
Specific activity of SpADH2 in cofactor spectrum study was determined by HPLC analysis. PBS (pH 7.5) buffer was pre-heated at 30°C for 15 min. For NAD(P)^+ and NMN^+, 0.05 µg SpADH2 was added to PBS buffer (100 µL). For tsNCBs, 5 µg SpADH2 was added. A final concentration of 7.5 mM cofactor was added to the reaction mixture. Finally, a final concentration of 5 mM substrate was added to start the reaction. The reactions were conducted at 30°C.
One unit of enzyme activity is defined as the amount of enzyme required to form 1 µmol 1b per minute at pH 7.5 and 30°C. Same reaction without cofactor was used as a blank control.

[3] = 1a varied, cofactor (= label) fixed: 5 mM NAD^+ or 7.5 mM p-BANA^+

Chain of SpADH2 WT (G2IIZ8 1-372): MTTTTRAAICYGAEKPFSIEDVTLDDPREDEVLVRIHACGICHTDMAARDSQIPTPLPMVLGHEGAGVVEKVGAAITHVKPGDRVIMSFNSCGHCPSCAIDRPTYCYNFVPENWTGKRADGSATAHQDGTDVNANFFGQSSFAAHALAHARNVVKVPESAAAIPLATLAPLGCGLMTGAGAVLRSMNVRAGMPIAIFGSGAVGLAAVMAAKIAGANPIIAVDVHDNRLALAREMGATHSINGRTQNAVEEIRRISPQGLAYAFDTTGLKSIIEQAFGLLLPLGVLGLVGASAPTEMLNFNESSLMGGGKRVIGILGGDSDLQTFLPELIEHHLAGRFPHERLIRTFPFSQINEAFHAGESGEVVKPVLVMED

Which kcat (SpADH2 variant A290I; [3]) does the source give for `NC(=O)c1ccc[n+](Cc2ccc(C(=O)O)cc2)c1` [p-BANA^+, para-3-carbamoyl-1-(4-carboxybenzyl)pyridin-1-ium] here?
Its kcat is 11 ± 4.1 min^− 1.

And the “Cofactor specificity ratio (catalytic efficiency of p-BANA^+ to NAD^+)” value (SpADH2 variant A290I; substrate kinetics)?
Its value is 2.95×10^-4.

And the “Relative specificity (CSR ratio of variant to WT)” value (SpADH2 variant A290I; substrate kinetics)?
The value was 19.4.

And the “fold increase in kcat vs WT” value (SpADH2 variant A290I; substrate kinetics, cofactor = label)?
The value was 10 fold.

What about the “fold higher activity than WT” value ([1]; substrate syringyl alcohol) of the same molecule?
Its value is 7 fold.

What about the activity ([1]; substrate syringyl alcohol (Fig. 5)) of the same molecule?
Its activity is 70 U/g.

And the kcat (SpADH2 WT; [3])?
Its kcat is 1.1 ± 0.3 min^− 1.

And the “Cofactor specificity ratio (catalytic efficiency of p-BANA^+ to NAD^+)” value (SpADH2 WT; substrate kinetics)?
The value was 1.52×10^-5.

What about the “catalytic activity of all variants with the cofactor (in words)” value [2] of the same molecule?
The value was “highest activity”.
